This is an account of results in US8906925B2, “Pyrido[4,3-B]indoles containing rigid moieties” (Medivation Technologies, Inc., priority 2008, dated 2014).

Read-outs that look alike come from different tables or passages of the source.

Assay [1] addresses histamine receptor H1 (Homo sapiens, UniProt P35367). Kind of assay: Histamine H1 radioligand binding ([3H]Pyrilamine). Particulars: read-out: Histamine Binding (1 μM) H1, percent inhibition of specific binding, 1 μM. An outline of the steps: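 Values are percent inhibition of specific [3H]pyrilamine (1.2 nM) binding with compounds at ≤1 μM (1% DMSO vehicle); 180 min incubation at 25 °C, pH 7.4 Tris buffer, on CHO-expressed human H1 receptor; 1 μM pyrilamine defined nonspecific binding, bound ligand counted after filtration.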

Assay [2] deals with human dopamine D2L receptor (Homo sapiens, UniProt P14416). Kind of assay: Dopamine D2L radioligand binding ([3H]Spiperone). Conditions: compound at 1 μM. From the text: Non-specific binding was estimated in the presence of […] Haloperidol. Receptor proteins were filtered and washed, the filters were then counted to determine [^3H]Spiperone specifically bound. […] Biochemical assay results are presented as the percent inhibition of specific binding in Table 9.
Chain of human dopamine D2L receptor (P14416 whole entry): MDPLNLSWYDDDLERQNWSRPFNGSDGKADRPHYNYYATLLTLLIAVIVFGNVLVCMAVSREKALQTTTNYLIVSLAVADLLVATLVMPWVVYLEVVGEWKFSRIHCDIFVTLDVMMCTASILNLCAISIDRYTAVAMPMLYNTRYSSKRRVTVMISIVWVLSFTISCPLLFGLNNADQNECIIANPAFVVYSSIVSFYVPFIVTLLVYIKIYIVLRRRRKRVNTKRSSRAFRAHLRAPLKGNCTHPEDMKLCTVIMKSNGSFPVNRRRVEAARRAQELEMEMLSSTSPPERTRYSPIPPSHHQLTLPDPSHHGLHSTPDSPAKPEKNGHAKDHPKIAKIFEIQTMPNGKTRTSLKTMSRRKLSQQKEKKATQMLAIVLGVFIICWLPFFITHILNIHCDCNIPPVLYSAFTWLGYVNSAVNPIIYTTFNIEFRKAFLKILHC

Assay [3] has as its target T1, human recombinant serotonin (5-Hydroxytryptamine) 5-HT2A receptor (Homo sapiens, UniProt P28223).
T1 construct: expressed in transfected cells; host or cells: Chinese hamster ovary (CHO-K1) cells
Kind of assay: Serotonin 5-HT2A radioligand binding ([3H]Ketanserin). Particulars: read-out: Inhibition of ligand binding, Serotonin 5-HT2A (percent inhibition of specific binding), compound at 1 μM. The protocol: Compounds of the invention were incubated with 0.5 nM [^3H]Ketanserin for 60 min. at 25° C. Non-specific binding was estimated in the presence of 1 μM Mianserin. Receptor proteins were filtered and washed, the filters were then counted to determine [^3H]Ketanserin specifically bound.

Setting [4] is: […] [3H]Spiperone, read-out: Inhibition of ligand binding, Dopamine D2L (percent inhibition of specific binding).
[5] abbreviates: percent inhibition of specific binding, read-out: Inhibition of ligand binding, Dopamine D2L.

Chain of histamine receptor H1 (P35367 whole entry): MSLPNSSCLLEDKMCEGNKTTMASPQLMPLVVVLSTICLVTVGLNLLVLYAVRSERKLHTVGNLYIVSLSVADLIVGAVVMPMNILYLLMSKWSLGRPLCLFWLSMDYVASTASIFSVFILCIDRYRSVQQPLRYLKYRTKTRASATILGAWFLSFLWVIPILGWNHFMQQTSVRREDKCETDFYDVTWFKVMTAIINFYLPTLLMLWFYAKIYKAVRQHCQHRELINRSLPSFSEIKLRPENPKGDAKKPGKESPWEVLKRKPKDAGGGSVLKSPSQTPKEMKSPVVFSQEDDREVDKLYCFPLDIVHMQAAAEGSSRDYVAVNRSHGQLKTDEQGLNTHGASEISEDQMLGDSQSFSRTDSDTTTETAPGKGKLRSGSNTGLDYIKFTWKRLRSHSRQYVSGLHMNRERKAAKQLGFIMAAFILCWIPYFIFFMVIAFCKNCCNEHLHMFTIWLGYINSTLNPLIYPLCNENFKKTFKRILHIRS
T1 sequence (P28223 whole entry): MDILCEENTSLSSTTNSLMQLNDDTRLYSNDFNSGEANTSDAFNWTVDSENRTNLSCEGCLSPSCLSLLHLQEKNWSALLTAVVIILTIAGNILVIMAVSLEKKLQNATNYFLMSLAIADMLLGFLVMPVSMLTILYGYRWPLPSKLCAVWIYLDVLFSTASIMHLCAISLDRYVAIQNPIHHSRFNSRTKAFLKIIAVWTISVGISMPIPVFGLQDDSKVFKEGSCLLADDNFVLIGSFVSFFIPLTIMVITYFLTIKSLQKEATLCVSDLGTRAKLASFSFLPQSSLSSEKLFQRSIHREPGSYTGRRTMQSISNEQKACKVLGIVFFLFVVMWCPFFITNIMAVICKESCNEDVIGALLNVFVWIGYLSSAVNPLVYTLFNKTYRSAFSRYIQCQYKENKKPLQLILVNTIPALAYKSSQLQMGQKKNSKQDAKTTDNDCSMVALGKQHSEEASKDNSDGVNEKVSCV

Take `CN1CCc2c(c3cccc(Cl)c3n2C[C@@](C)(O)c2ccncc2)C1` [Compound No. 469, (S)-1-(6-chloro-2-methyl-3,4-dihydro-1H-pyrido[4,3-b]indol-5(2H)-yl)-2-(pyridin-4-yl)propan-2-ol]: the inhibition at 1 µM was 14% in assay [1], 12% in assay [2] (setting [4]) and 87% in assay [3].
`CN1CCc2c(c3cc(Cl)ccc3n2/C=C(/c2ccncc2)C(C)(C)C)C1` [Compound No. 286, (E)-8-chloro-5-(3,3-dimethyl-2-(pyridin-4-yl)but-1-enyl)-2-methyl-2,3,4,5-tetrahydro-1H-pyrido[4,3-b]indole]: the inhibition at 1 µM in assay [1] turned out to be 19%; in assay [2] (setting [5]), 23%.
On to `C/C(=C\n1c2c(c3cc(N(C)C)ccc31)CN(C)CC2)c1ccncc1` [compound 450, (E)-N,N,2-trimethyl-5-(2-(pyridin-4-yl)prop-1-enyl)-2,3,4,5-tetrahydro-1H-pyrido[4,3-b]indol-8-amine], for which the inhibition at 1 µM amounted to 43% in assay [1] and 35% in assay [2] (setting [4]).
For `CC(C)=C(Cn1c2c(c3cc(Cl)ccc31)CN(C)CC2)c1ccncc1` [Compound No. 357, 8-chloro-2-methyl-5-(3-methyl-2-(pyridin-4-yl)but-2-enyl)-2,3,4,5-tetrahydro-1H-pyrido[4,3-b]indole], in that order: 61% and 14%.
As for `C/C(=C/n1c2c(c3cc(Cl)ccc31)CN(C)CC2)C1CCCCC1` [Compound 369, (Z)-8-chloro-5-(2-cyclohexylprop-1-enyl)-2-methyl-2,3,4,5-tetrahydro-1H-pyrido[4,3-b]indole], the inhibition at 1 µM in assay [1] stood at 29%; in assay [2] (setting [4]), 64%.
For `Cc1ccc2c(c1)c1c(n2/C=C(\F)c2ccc(Br)nc2)CCN(C)C1` [compound 416, (Z)-5-(2-(6-bromopyridin-3-yl)-2-fluorovinyl)-2,8-dimethyl-2,3,4,5-tetrahydro-1H-pyrido[4,3-b]indole], the values for the inhibition at 1 µM in assay [1] and in assay [2] (setting [4]) were 91% and 20%, respectively.
Consider `COc1cccc2c3c(n(CC(C)(O)c4ccncc4)c12)CCN(C)C3` (stereo not shown) [Compound 343, 1-(6-methoxy-2-methyl-3,4-dihydro-1H-pyrido[4,3-b]indol-5(2H)-yl)-2-(pyridin-4-yl)propan-2-ol], for which the inhibition at 1 µM in assay [1] is 22%; in assay [2] (setting [5]), 9%.
For `C/C(=C\n1c2c(c3cc(C)ccc31)CN(CCF)CC2)c1ccncc1` [compound 422, (E)-2-(2-fluoroethyl)-8-methyl-5-(2-(pyridin-4-yl)prop-1-enyl)-2,3,4,5-tetrahydro-1H-pyrido[4,3-b]indole], the values for the inhibition at 1 µM in assay [1] and in assay [2] (setting [4]) were 8% and 68%, respectively.
Turning to `C/C(=C\n1c2c(c3cc(C)ccc31)CN(C=O)CC2)c1ccncc1` [compound 411, (E)-8-methyl-5-(2-(pyridin-4-yl)prop-1-enyl)-3,4-dihydro-1H-pyrido[4,3-b]indole-2(5H)-carbaldehyde], the inhibition at 1 µM in assay [1] was determined as 0%; in assay [2] (setting [4]) it was 55%.
Take `C/C(=C\n1c2c(c3cc(N4CCN(C)CC4)ccc31)CN(C)CC2)c1ccncc1` [compound 437, (E)-2-methyl-8-(4-methylpiperazin-1-yl)-5-(2-(pyridin-4-yl)prop-1-enyl)-2,3,4,5-tetrahydro-1H-pyrido[4,3-b]indole]: the inhibition at 1 µM is 44% in assay [1] and 15% in assay [2] (setting [4]).
`C/C(=C\n1c2c(c3cc(C)ccc31)C(C)N(C)C(C)C2)c1ccncc1` (stereo not shown) [Compound 285, (E)-1,2,3,8-tetramethyl-5-(2-(pyridin-4-yl)prop-1-enyl)-2,3,4,5-tetrahydro-1H-pyrido[4,3-b]indole]: the values for the inhibition at 1 µM in assay [1] and in assay [2] (setting [5]) were 21% and 53%, respectively.
For the molecule `C/C(=C\n1c2c(c3cc(Cl)ccc31)CN(C)CC2)c1ccnc(C)c1` [compound 394, (E)-8-chloro-2-methyl-5-(2-(2-methylpyridin-4-yl)prop-1-enyl)-2,3,4,5-tetrahydro-1H-pyrido[4,3-b]indole], the figures for the inhibition at 1 µM in assay [1] and in assay [2] (setting [4]) were 75% and 99%, respectively.
Turning to `C/C(=C/c1ccccc1)n1c2c(c3cc(C)ccc31)CN(C)CC2` [compound 429, (Z)-2,8-dimethyl-5-(1-phenylprop-1-en-2-yl)-2,3,4,5-tetrahydro-1H-pyrido[4,3-b]indole], the values for the inhibition at 1 µM in assay [1] and in assay [2] (setting [4]) were 101% and 30%, respectively.
For `C/C(=C\n1c2c(c3cc(C)ccc31)CNCC2)c1cc[n+](C)cc1` [Compound No. 471, (E)-1-methyl-4-(1-(8-methyl-3,4-dihydro-1H-pyrido[4,3-b]indol-5(2H)-yl)prop-1-en-2-yl)pyridinium], in that order: 2% and 2%.
For `COc1ccc(/C(F)=C(/c2ccc(OC)nc2)n2c3c(c4cc(C)ccc42)CN(C)CC3)cn1` [compound 420, (E)-5-(2-fluoro-1,2-bis(6-methoxypyridin-3-yl)vinyl)-2,8-dimethyl-2,3,4,5-tetrahydro-1H-pyrido[4,3-b]indole] the same measures were 13% and 29%.
For `C/C=C(/c1ccccc1)n1c2c(c3cc(C)ccc31)CN(C)CC2` [compound 408, (Z)-2,8-dimethyl-5-(1-phenylprop-1-enyl)-2,3,4,5-tetrahydro-1H-pyrido[4,3-b]indole], in that order: 98% and 44%.
On to `C/C(=C\n1c2c(c3cc(Cl)ccc31)CN(CCCC(O)c1ccc(F)cc1)CC2)c1ccncc1` (stereo not shown) [compound 395, (E)-4-(8-chloro-5-(2-(pyridin-4-yl)prop-1-enyl)-3,4-dihydro-1H-pyrido[4,3-b]indol-2(5H)-yl)-1-(4-fluorophenyl)butan-1-ol], for which the inhibition at 1 µM in assay [1] stood at 102%; in assay [2] (setting [4]), 99%.
Regarding `CCCCNc1ccc2c(c1)c1c(n2/C=C(\C)c2ccc(F)cc2)CCN(C)C1` [compound 432, (E)-N-butyl-5-(2-(4-fluorophenyl)prop-1-enyl)-2-methyl-2,3,4,5-tetrahydro-1H-pyrido[4,3-b]indol-8-amine], the values for the inhibition at 1 µM in assay [1] and in assay [2] (setting [4]) were 46% and 79%, respectively.
Take `Cc1ccc2c(c1)c1c(n2/C=C(\F)c2cccs2)CCN(C)C1` [compound 451]: the values for the inhibition at 1 µM in assay [1] and in assay [2] (setting [4]) were 99% and 70%, respectively.
As to `COCCCN1CCc2c(c3cc(C)ccc3n2/C=C(\C)c2ccncc2)C1` [compound 400, (E)-2-(3-methoxypropyl)-8-methyl-5-(2-(pyridin-4-yl)prop-1-enyl)-2,3,4,5-tetrahydro-1H-pyrido[4,3-b]indole], the inhibition at 1 µM in assay [1] was found to be 22%; in assay [2] (setting [4]), 94%.
Turning to `Cc1ccc2c(c1)c1c(n2C#Cc2ccc(C3CC3)nc2)CCN(C)C1` [Compound No. 496, 5-((6-cyclopropylpyridin-3-yl)ethynyl)-2,8-dimethyl-2,3,4,5-tetrahydro-1H-pyrido[4,3-b]indole], the figures for the inhibition at 1 µM in assay [1] and in assay [2] (setting [4]) were 15% and 25%, respectively.
In the case of `Cc1ccc2c(c1)c1c(n2CC(C)(O)c2ccncc2)CCN(CC(F)(F)F)C1` (stereo not shown) [Compound 341, 1-(8-methyl-2-(2,2,2-trifluoroethyl)-3,4-dihydro-1H-pyrido[4,3-b]indol-5(2H)-yl)-2-(pyridin-4-yl)propan-2-ol], the values for the inhibition at 1 µM in assay [1] and in assay [2] (setting [5]) were 11% and 2%, respectively.
Take `CN1CCc2c(c3cc(Cl)ccc3n2/C=C(/c2ccccc2)c2ccncc2)C1` [Compound No. 461, (Z)-8-chloro-2-methyl-5-(2-phenyl-2-(pyridin-4-yl)vinyl)-2,3,4,5-tetrahydro-1H-pyrido[4,3-b]indole]: the inhibition at 1 µM in assay [1] turned out to be 31%; in assay [2] (setting [4]), 78%.
For `C/C(=C/n1c2c(c3cc(Cl)ccc31)CN(C)CC2)c1ccncc1` [compound 384, (Z)-8-chloro-2-methyl-5-(2-(pyridin-4-yl)prop-1-enyl)-2,3,4,5-tetrahydro-1H-pyrido[4,3-b]indole], in that order: 66% and 91%.
For `Cc1ccc2c(c1)c1c(n2C#Cc2ccoc2)CCN(C)C1` [Compound No. 492, 5-(furan-3-ylethynyl)-2,8-dimethyl-2,3,4,5-tetrahydro-1H-pyrido[4,3-b]indole], in that order: 68% and 60%.
For `C/C(=C\n1c2c(c3cc(Cl)ccc31)CN(C)CC2)c1nccs1` [Compound 370, (E)-2-(1-(8-chloro-2-methyl-3,4-dihydro-1H-pyrido[4,3-b]indol-5(2H)-yl)prop-1-en-2-yl)thiazole] the same measures were 72% and 63%.
On to `C/C(=C\n1c2c(c3cc(Cl)ccc31)CN(C)CC2)c1cc(C)nc(C)c1` [compound 393, (E)-8-chloro-5-(2-(2,6-dimethylpyridin-4-yl)prop-1-enyl)-2-methyl-2,3,4,5-tetrahydro-1H-pyrido[4,3-b]indole], for which the inhibition at 1 µM in assay [1] is 69%; in assay [2] (setting [4]) it was 99%.

Broadly, the inhibition is the relative decrease from the control value, in per cent.
